{"source": "patent US20260306526A1", "about": "“COMBINATION THERAPY FOR BACTERIAL INFECTIONS COMPRISING ZINC-CHELATOR, BETA-LACTAM ANTIBIOTIC AND SERINE BETA-LACTAMASE INHIBITOR” (priority 2023, published 2026)", "key": {"bacterial strain": {"test_system": "bacterial strain", "assay": "MIC checkerboard assays, Examples 2 to 30 overall", "type": "cell-based", "procedure": "Thus, in most of the experiments, a Fractional Inhibitory Concentration Index (FICI) could not be calculated, and the conclusion of synergy was made through visual reading of the bacterial growth in the wells in the combination experiment.\n(§1) Antimicrobial susceptibility testing (AST) by broth microdilution (MIC determination) was performed according to The European Committee on Antimicrobial Susceptibility Testing (EUCAST) guidelines (see Reading guide for broth microdilution Version 5.0, 2024: https://www.eucast.org).\n(§2) Sterile clear round bottom polystyrene (non-treated) 96-well microplates (Corning 3788) were used for making serial two-fold dilutions of the antibiotic and the sBLI in cation-adjusted Mueller Hinton II broth (caMHB; Thermo Scientific, T3462, containing 29.4 μM Zn^2+), across the columns of the microtiter plate (256-0.06 μg/mL; columns 1-12). The checkerboard plates were all made by keeping the sBLI at a fixed ratio relative to antibiotic (absolute concentrations of each, in μg/mL) to all wells containing sample in each plate. Additionally, a set of samples was included in each test plate, where the zinc chelator was added, at various fixed concentrations, of 16 μg/mL, 8 μg/mL and/or 4 μg/mL (as specified in each Example). All sample wells contained growth medium (caMHB), and inoculated bacteria at a final inoculum between 3-7×10^5 CFU/mL. […]"}, "[1]": {"test_system": "certain strains of Pseudomonas aeruginosa", "conditions": "with MEM; cited from earlier work"}, "[2]": {"test_system": "Klebsiella pneumoniae K66-45", "assay": "MIC determination, fixed concentration of sBLI (Examples 8-9)", "type": "cell-based", "conditions": "Example 9; with PIP and TAZ 16 μg/mL; NDM-1; caMHB, 29.4 μM Zn2+", "procedure": "as §1\nFor combinations containing meropenem as the antibiotic, Sensititre™ FINMER meropenem 64-0.03 μg/mL plates (Thermo Fischer Diagnostics custom plates; YFINMER) were used in most of the experiments. For other antibiotics (and for meropenem whenever a higher start concentration than 64 μg/mL was needed) sterile clear round bottom polystyrene (non-treated) 96-well microplates (Corning 3788) were used for making serial two-fold dilutions of the antibiotic in cation-adjusted Mueller Hinton II broth (caMHB; Thermo Scientific, T3462, containing 29.4 μM Zn^2+ or MILLIPORE, 90922-500G, containing 5.6 μM Zn^2+), across the columns of the microtiter plate (128-0.06 μg/mL; columns 1-12).\nThe checkerboard plates were all modified by adding a serine β-lactamase inhibitor (sBLI) at a fixed concentration of 16 μg/mL. Additionally, the zinc chelator was added at various fixed concentrations. […]"}, "[3]": {"test_system": "Klebsiella pneumoniae K66-45", "assay": "MIC determination, fixed ratio of sBLI to antibiotic (Examples 2-4)", "type": "cell-based", "conditions": "Example 2; with MEM and AVI (fixed ratio); NDM-1; caMHB, 29.4 μM Zn2+", "procedure": "as §1, §2"}}, "note": "Where “and” joins values, the source holds several entries; their conditions need not be identical. Identical values can stand only once."}
{"smiles": "CN(C[C@H](O)[C@@H](O)[C@H](O)[C@H](O)CO)C(=O)c1ccc(CN(Cc2ccccn2)Cc2ccccn2)nc1", "note": "[zinc chelator]", "values": [{"measurement": "intrinsic antibiotic effect", "setting": "bacterial strain", "value": "neither the zinc chelator nor the sBLI have intrinsic antibiotic effect"}, {"measurement": "effect of combination", "setting": "[1]", "value": "poor effect"}, {"measurement": "Synergy with the zinc chelator observed at concentration", "setting": "[2]", "value": 16, "unit": "µg/mL"}, {"measurement": "Synergy with the zinc chelator observed at concentration", "setting": "[3]", "value": "16 µg/mL and 8 µg/mL"}]}
